Results as given in patent publication US11236055B2 (Venenum Biodesign, LLC, priority 2016, dated 2022).

Assays:
mouse TGR5 receptor = biological target: T1, mouse TGR5 receptor (Mus musculus, UniProt Q80SS6); test: Mouse TGR5 cAMP production assay (HTRF, Cisbio cAMP HiRange); assay type: cell-based; details: HEK293-EBNA cells overexpressing mouse TGR5, HTRF cAMP HiRange; coded A-D
T1 construct: expressed in transfected cells; host or cells: HEK293-EBNA (293 c18, ATCC CRL10852), Hygromycin B selection
T1 sequence (Q80SS6 1-329): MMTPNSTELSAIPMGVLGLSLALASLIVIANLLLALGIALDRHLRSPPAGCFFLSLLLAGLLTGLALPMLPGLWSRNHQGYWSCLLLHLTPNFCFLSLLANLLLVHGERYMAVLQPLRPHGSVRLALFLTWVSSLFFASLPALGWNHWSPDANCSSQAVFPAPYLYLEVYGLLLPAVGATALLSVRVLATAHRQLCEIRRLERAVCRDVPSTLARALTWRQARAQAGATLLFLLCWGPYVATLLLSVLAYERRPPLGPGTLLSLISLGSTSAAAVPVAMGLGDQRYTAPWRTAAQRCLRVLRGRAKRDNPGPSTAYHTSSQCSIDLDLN
Outline: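 cAMP read by HTRF competition after 1 h room-temperature compound exposure of mouse TGR5-overexpressing HEK293-EBNA cells. Cells were suspended in serum-free DMEM containing 500 μM IBMX; compounds ran as 12-point half-log dilutions in duplicate; EC50 derived.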

human TGR5 receptor = biological target: T2, human TGR5 receptor (Homo sapiens, UniProt Q8TDU6); test: Human TGR5 cAMP production assay; assay type: cell-based; details: human TGR5, luminescent cAMP assay; coded A-D; read-out: Human TGR5 Lum. cAMP Activity (EC50)
T2 construct: host or cells: CHO-K1 (hTGR5-CHO cells)
T2 sequence (Q8TDU6 1-330): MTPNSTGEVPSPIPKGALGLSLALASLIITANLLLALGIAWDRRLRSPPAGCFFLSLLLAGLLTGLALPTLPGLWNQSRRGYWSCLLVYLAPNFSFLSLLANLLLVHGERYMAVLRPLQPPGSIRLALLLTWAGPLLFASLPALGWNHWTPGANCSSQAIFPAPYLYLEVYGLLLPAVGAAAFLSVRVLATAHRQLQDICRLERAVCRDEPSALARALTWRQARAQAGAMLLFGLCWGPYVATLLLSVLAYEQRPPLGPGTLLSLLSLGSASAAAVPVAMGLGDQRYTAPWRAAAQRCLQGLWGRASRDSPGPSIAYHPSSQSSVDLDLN
Outline: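 CHO-K1 cells stably expressing human TGR5, with IBMX and cAMP antibody, were exposed to half-log serially diluted compound for 1 h at room temperature. cAMP measured by enzyme-fragment complementation luminescence (XS+ kit) after overnight incubation; EC50 values reported.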

Row | SMILES | EC50 (mouse TGR5 receptor) [nM] | EC50 (human TGR5 receptor) [nM]
1 | Cc1cnccc1-c1cccc(C(C)(C)N(CCCNS(=O)(=O)CCNC(=N)N)S(=O)(=O)c2cccc(Cl)c2C)c1 [Compound 27AC, 3-chloro-N-(3-((2-guanidinoethyl)sulfonamido)propyl)-2-methyl-N-(2-(3-(3-methylpyridin-4-yl)phenyl)propan-2-yl)benzenesulfonamide] | 100 to 999 | < 100
2 | CCc1cnccc1-c1cccc([C@H](C)N(CCCC(=O)NCC[N+](C)(C)C)S(=O)(=O)c2cccc(Cl)c2C)c1 [Compound 27AE, (S)-2-(4-(3-chloro-N-(1-(3-(3-ethylpyridin-4-yl)phenyl)ethyl)-2-methylphenylsulfonamido)butanamido)-N,N,N-trimethylethanaminium] | 100 to 999 | < 100
3 | Cc1cnccc1-c1cccc([C@H](C)N(CCCCNC(=O)NCCS(=O)(=O)O)S(=O)(=O)c2ccccc2C(F)(F)F)c1 [Compound 28AB, (S)-2-(3-(4-(N-(1-(3-(3-methylpyridin-4-yl)phenyl)ethyl)-2-(trifluoromethyl)phenylsulfonamido)butyl)ureido)ethanesulfonic acid] | 100 to 999 | < 100
4 | Cc1cnccc1-c1cccc(C(C)(C)N(CCCNS(=O)(=O)CCNC(=O)NCCS(=O)(=O)O)S(=O)(=O)c2cccc(Cl)c2C)c1 [Compound 28AD, 2-(3-(2-(N-(3-((3-chloro-2-methyl-N-(2-(3-(3-methylpyridin-4-yl)phenyl)propan-2-yl)phenyl)sulfonamido)propyl)sulfamoyl)ethyl)ureido)ethane-1-sulfonic acid] | < 100 | < 100
5 | Cc1cnccc1-c1cccc(C(C)(C)N(CCCNS(=O)(=O)CCNC(=O)NCCCS(=O)(=O)O)S(=O)(=O)c2cccc(Cl)c2C)c1 [Compound 28AE, 3-(3-(2-(N-(3-((3-chloro-2-methyl-N-(2-(3-(3-methylpyridin-4-yl)phenyl)-propan-2-yl)phenyl)sulfonamido)-propyl)sulfamoyl)ethyl)ureido)propane-1-sulfonic acid] | 100 to 999 | < 100
6 | Cc1cnccc1-c1cccc([C@H](C)N(CCCCC(=O)NCCOCCNC(=O)NCCS(=O)(=O)O)S(=O)(=O)c2cccc(Cl)c2C)c1 [Compound 28AF, (S)-17-((3-chloro-2-methylphenyl)sulfonyl)-18-(3-(3-methylpyridin-4-yl)phenyl)-4,12-dioxo-8-oxa-3,5,11,17-tetraazanonadecane-1-sulfonic acid] | 100 to 999 | < 100
7 | Cc1cnccc1-c1cccc(C(CCCCNC(=O)NCCS(=O)(=O)O)NS(=O)(=O)c2ccccc2C(F)(F)F)c1 (stereo not shown) [Compound 28AG, 2-(3-(5-(3-(3-methylpyridin-4-yl)phenyl)-5-(2-(trifluoromethyl)phenylsulfonamido)pentyl)ureido)ethanesulfonic acid] | 100 to 999 | 100 to 999
8 | Cc1cnccc1-c1cccc(CN(CCCNC(=O)NCS(=O)(=O)O)S(=O)(=O)c2cccc(Cl)c2C)c1 [Compound 28AI, (3-(3-(3-chloro-2-methyl-N-(3-(3-methylpyridin-4-yl)benzyl)phenylsulfonamido)propyl)ureido)methanesulfonic acid] | 100 to 999 | 100 to 999
9 | Cc1cnccc1-c1cccc(C(C)(C)N(CCCNC(=O)NCCCS(=O)(=O)O)S(=O)(=O)c2cccc(Cl)c2C)c1 [Compound 29AC] | < 100 | < 100
10 | Cc1cnccc1-c1cccc(CCN(CCCNC(=O)NCS(=O)(=O)O)S(=O)(=O)c2cccc(Cl)c2C)c1 [Compound 29AD, (3-(3-(3-chloro-2-methyl-N-(3-(3-methylpyridin-4-yl)phenethyl)phenylsulfonamido)propyl)ureido)methanesulfonic acid] | 1000 to 30000 | 100 to 999
11 | Cc1cnccc1-c1cccc([C@H](C)N(CCCC(=O)NCCNC(=O)NCCC(=O)O)S(=O)(=O)c2cccc(Cl)c2C)c1 [Compound 30, (S)-3-((3-Chloro-2-methylphenyl)sulfonyl)-2-(3-(3-methylpyridin-4-yl)phenyl)-7,12-dioxo-3,8,11,13-tetraazahexadecan-16-oic acid] | 100 to 999 | < 100
12 | Cc1cnccc1-c1cccc([C@H](C)N(CCCCC(=O)NCCOCCNC(=O)CS(=O)(=O)O)S(=O)(=O)c2cccc(Cl)c2C)c1 [Compound 31, (S)-15-((3-chloro-2-methylphenyl)sulfonyl)-16-(3-(3-methylpyridin-4-yl)phenyl)-2,10-dioxo-6-oxa-3,9,15-triazaheptadecane-1-sulfonic acid] | < 100 | < 100
13 | CCc1cnccc1-c1cccc([C@H](C)N(CCCCNC(=O)[C@@H](N)CS(=O)(=O)O)S(=O)(=O)c2cccc(Cl)c2C)c1 [Compound 31AD, (R)-2-amino-3-((4-(3-chloro-N-((S)-1-(3-(3-ethylpyridin-4-yl)phenyl)ethyl)-2-methylphenylsulfonamido)butyl)amino)-3-oxopropane-1-sulfonic acid] | < 100 | < 100
14 | Cc1cnccc1-c1cccc([C@H](C)N(CCCC(=O)NCCNC(=O)CS(=O)(=O)O)S(=O)(=O)c2ccccc2C(F)(F)F)c1 [Compound 31AE, (S)-2-((2-(4-(N-(1-(3-(3-methylpyridin-4-yl)phenyl)ethyl)-2-(trifluoromethyl)phenylsulfonamido)butanamido)ethyl)amino)-2-oxoethanesulfonic acid] | 100 to 999 | < 100
15 | Cc1cnccc1-c1cccc([C@H](C)N(CCCC(=O)NCCNC(=O)[C@@H](N)CS(=O)(=O)O)S(=O)(=O)c2ccccc2C(F)(F)F)c1 [Compound 31AF, (R)-2-amino-3-((2-(4-(N-((S)-1-(3-(3-methylpyridin-4-yl)phenyl)ethyl)-2-(trifluoromethyl)phenylsulfonamido)butanamido)ethyl)amino)-3-oxopropane-1-sulfonic acid] | 100 to 999 | < 100
16 | Cc1cnccc1-c1cccc(C(C)N(CCNc2c(NCS(=O)(=O)O)c(=O)c2=O)S(=O)(=O)c2cccc(Cl)c2C)c1 (stereo not shown) [Compound 32, 2-((2-((2-(3-chloro-2-methyl-N-(1-(3-(3-methylpyridin-4-yl)phenyl)ethyl)phenylsulfonamido)ethyl)amino)-3,4-dioxocyclobut-1-en-1-yl)amino)methanesulfonic acid] | 1000 to 30000 | 1000 to 30000
17 | Cc1cnccc1-c1cccc(C(C)N(CCCNc2c(NCS(=O)(=O)O)c(=O)c2=O)S(=O)(=O)c2cccc(Cl)c2C)c1 (stereo not shown) [Compound 32AA, ((2-((3-(3-chloro-2-methyl-N-(1-(3-(3-methylpyridin-4-yl)phenyl)ethyl)phenylsulfonamido)propyl)amino)-3,4-dioxocyclobut-1-en-1-yl)amino)methanesulfonic acid] | 100 to 999 | < 100
18 | Cc1cnccc1-c1cccc(C(C)N(CCCNc2c(NCCC(=O)O)c(=O)c2=O)S(=O)(=O)c2cccc(Cl)c2C)c1 (stereo not shown) [Compound 32AB] | 100 to 999 | 100 to 999
19 | Cc1cnccc1-c1cccc([C@H](C)N(CCCCNCCC(=O)O)S(=O)(=O)c2cccc(Cl)c2C)c1 [Compound 33, (S)-3-((4-(3-chloro-2-methyl-N-(1-(3-(3-methylpyridin-4-yl)phenyl)ethyl)phenylsulfonamido)butyl)amino)propanoic acid] | 100 to 999 | 100 to 999
20 | CC(=O)N(CCCCN([C@@H](C)c1cccc(-c2ccncc2C)c1)S(=O)(=O)c1cccc(Cl)c1C)CCC(=O)O [Compound 34, (S)-3-(N-(4-(3-chloro-2-methyl-N-(1-(3-(3-methylpyridin-4-yl)phenyl)ethyl)phenylsulfonamido)butyl)acetamido)propanoic acid] | 100 to 999 | 100 to 999
21 | Cc1cnccc1-c1cccc(C(CCCCC#N)NS(=O)(=O)c2cccc(Cl)c2C)c1 (stereo not shown) [Compound 35, 3-chloro-N-(5-cyano-1-(3-(3-methylpyridin-4-yl)phenyl)pentyl)-2-methylbenzenesulfonamide] | 100 to 999 | 100 to 999
22 | Cc1ccc(S(=O)(=O)NC(CCCCC#N)c2cccc(-c3ccncc3C)c2)nc1 (stereo not shown) [Compound 35B, N-(5-cyano-1-(3-(3-methylpyridin-4-yl)phenyl)pentyl)-5-methylpyridine-2-sulfonamide] | 1000 to 30000 | 1000 to 30000
23 | Cc1cnccc1-c1cccc([C@H](C)N(CCCC(=O)NCCS(=O)(=O)NCC(=O)O)S(=O)(=O)c2ccc(F)cc2C(F)(F)F)c1 [Compound 36, (S)-2-(4-(4-fluoro-N-(1-(3-(3-methylpyridin-4-yl)phenyl)ethyl)-2-(trifluoromethyl)phenylsulfonamido)butanamido)ethanesulfonamido acetic acid] | < 100 | < 100
